# Test results published in patent publication US20250195513A1, “DEGRADATION OF IRAK4 BY CONJUGATION OF IRAK4 INHIBITORS WITH E3 LIGASE LIGAND AND METHODS OF USE” (BeiGene, Ltd., priority 2022, published 2025).
# How the values were obtained:
# Type in all cases: cell-based
# IRAK4 [1] = target: T1, IRAK4 (Homo sapiens, UniProt Q9NWZ3); assay: IRAK4 Degradation Assay (Karpas299, HTRF/TR-FRET); details: Karpas-299 cells; for Dmax: maximum percentage of degradation
# T1 construct: endogenous in cells; host or cells: Karpas299
# T1 sequence (Q9NWZ3 1-460): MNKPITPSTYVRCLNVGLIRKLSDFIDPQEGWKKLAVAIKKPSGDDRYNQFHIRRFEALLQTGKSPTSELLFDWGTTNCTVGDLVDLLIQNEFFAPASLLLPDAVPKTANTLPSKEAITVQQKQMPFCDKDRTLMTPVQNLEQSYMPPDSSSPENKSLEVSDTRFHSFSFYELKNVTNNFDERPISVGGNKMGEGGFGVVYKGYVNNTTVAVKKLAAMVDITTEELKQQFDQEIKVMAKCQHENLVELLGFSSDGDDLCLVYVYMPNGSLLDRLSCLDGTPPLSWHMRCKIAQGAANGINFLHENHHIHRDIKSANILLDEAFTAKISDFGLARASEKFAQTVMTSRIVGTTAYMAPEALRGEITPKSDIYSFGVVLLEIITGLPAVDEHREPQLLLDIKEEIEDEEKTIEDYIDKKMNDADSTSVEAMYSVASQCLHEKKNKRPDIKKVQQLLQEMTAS
# Method in brief: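 Compound potency as DC50 (IC50) came from four-parameter fits of percent IRAK4 degradation. IRAK4 was measured by HTRF (665/620 nm) in lysates of Karpas299 cells seeded at 0.2 million per well. Cells had been treated with compound dilutions for 5 or 24 h.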
# IRAK4 [2] = target: T1, IRAK4; assay: IRAK4 Degradation Assay with Human Serum (Karpas299, HTRF/TR-FRET); details: Karpas-299 in human serum, 24 hrs treatment; for DC50: read-out: IRAK4 degradtion with human serum assay DC50; for Dmax: read-out: IRAK4 degradtion with human serum assay Dmax (%)
# Method in brief: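 Remaining IRAK4 measured by TR-FRET immunoassay on lysates of Karpas299 cells exposed 24 h to compound dilution series in human serum AB. DC50 derived from a Hill-slope fit of % degradation versus concentration.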
# [3] = test system: TNF-α production in THP-1 cells; assay: TNF-α Production Assay in THP-1 Cells (LPS stimulated); details: Homo sapiens, THP-1, 24 h; for Emax: maximum inhibition, read-out: TNF-α (THP-1) 24 h IMax
# Method in brief: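 Cells (0.2 million/well) pretreated with compounds for 24 h, then stimulated with LPS at 1 μg/mL final for 24 h. TNF-α in culture supernatant quantified by TR-FRET immunoassay.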
# [4] = test system: IL-6 production in human PBMC; assay: IL-6 Production Assay in Human PBMC (LPS stimulated); details: Homo sapiens, 5 h; for Emax: maximum inhibition, read-out: IL-6 (PBMC) 5 h IMax
# Protocol: Frozen human PBMC (AllCells) were thawed in RPMI 1640 medium (Thermo Scientific) supplemented with 10% heat-inactivated FBS (Thermo Scientific) and recovered at 37° C. overnight. The next day, PBMC were seeded into 96-well plates at the density of 0.2 million cells per well and treated with compounds for 24 h. Then lipopolysaccharide was added at the final concentration of 10 ng/mL for 5 h. Culture supernatant was collected for subsequent measurement of IL-6 concentration by a TR-FRET-based method (Degorce, François, et al. Current chemical genomics. 2009, 3: 22) as described by the manufacturer manual (Cisbio). FRET signals were measured with PHERAstar FSX reader (BMG Labtech).
# [5] = 24 h treatment, read-out: IRAK4 in Karpas-299 (24 h) Dmax (%)
# [6] = 24 h treatment, read-out: IRAK4 in Karpas-299 (24 h) DC50
# [7] = 5 h treatment, read-out: IRAK4 in Karpas-299 (5 h) Dmax (%)
# [8] = 5 h treatment, read-out: IRAK4 in Karpas-299 (5 h) DC50
SMILES,Dmax (IRAK4 [1]; [5]) [%],DC50 (IRAK4 [1]; [6]) [nM],DC50 (IRAK4 [2]) [nM],Dmax (IRAK4 [2]) [%],IC50 [3] [nM],Dmax (IRAK4 [1]; [7]) [%],DC50 (IRAK4 [1]; [8]) [nM],Emax [3] [%],IC50 [4] [nM],Emax [4] [%]
"COC[C@H]1CN(CCc2cc(F)c([C@H]3CCC(=O)NC3=O)c(F)c2)CCN1[C@H]1CC[C@H](n2cc3cc(NC(=O)c4ccc5cc(C#N)cnn45)c(C(C)(C)O)cc3n2)CC1 [Example 321, 3-cyano-N-(2-((1R,4r)-4-((R)-4-(4-((R)-2,6-dioxopiperidin-3-yl)-3,5-difluorophenethyl)-2-(methoxymethyl)piperazin-1-yl)cyclohexyl)-6-(2-hydroxypropan-2-yl)-2H-indazol-5-yl)pyrrolo[1,2-b]pyridazine-7-carboxamide]",96,1.4,5.5,98,55,–,–,77,0.4,58
"COC[C@H]1CN([C@H]2CC[C@H](n3cc4cc(NC(=O)c5ccc6cc(C#N)cnn56)c(C(C)(C)O)cc4n3)CC2)CCN1C1CCN(c2cc(F)c([C@H]3CCC(=O)NC3=O)c(F)c2)CC1 [Example 317, 3-cyano-N-(2-((1R,4r)-4-((R)-4-(1-(4-((R)-2,6-dioxopiperidin-3-yl)-3,5-difluorophenyl)piperidin-4-yl)-3-(methoxymethyl)piperazin-1-yl)cyclohexyl)-6-(2-hydroxypropan-2-yl)-2H-indazol-5-yl)pyrrolo[1,2-b]pyridazine-7-carboxamide]",96,0.8,25,100,41,95,1.9,87,1,71
"Cc1nc(C2CCC(=O)NC2=O)ccc1N1CCC(N2CCN([C@H]3CC[C@H](n4cc5cc(NC(=O)c6ccc7cc(C#N)cnn67)c(C(C)(C)O)cc5n4)CC3)CC2)CC1 (stereo partly shown) [Example 398, 3-cyano-N-(2-((1r,4r)-4-(4-(1-(6-(2,6-dioxopiperidin-3-yl)-2-methylpyridin-3-yl)piperidin-4-yl)piperazin-1-yl)cyclohexyl)-6-(2-hydroxypropan-2-yl)-2H-indazol-5-yl)pyrrolo[1,2-b]pyridazine-7-carboxamide]",97,2.3,2.6,98,21,97,1.9,97,2.4,70
"CC(C)(O)c1cc2nn(C34CCC(N5CCN(C6CCN(c7cc(F)c([C@H]8CCC(=O)NC8=O)c(F)c7)CC6)CC5)(CC3)CC4)cc2cc1NC(=O)c1ccc2cc(C#N)cnn12 [Example 333, (R)-3-cyano-N-(2-(4-(4-(1-(4-(2,6-dioxopiperidin-3-yl)-3,5-difluorophenyl)piperidin-4-yl)piperazin-1-yl)bicyclo[2.2.2]octan-1-yl)-6-(2-hydroxypropan-2-yl)-2H-indazol-5-yl)pyrrolo[1,2-b]pyridazine-7-carboxamide]",97,2.4,23,93,10,98,3.9,96,4.7,62
"CC(C)(O)c1cc2nn([C@H]3CC[C@H](N4CCN([C@H]5C[C@H](c6cc(F)c([C@H]7CCC(=O)NC7=O)c(F)c6)C5)CC4)CC3)cc2cc1NC(=O)c1ccc2cc(C#N)cnn12 [Example 364, 3-cyano-N-(2-((1R,4r)-4-(4-((1R,3R)-3-(4-((R)-2,6-dioxopiperidin-3-yl)-3,5-difluorophenyl)cyclobutyl)piperazin-1-yl)cyclohexyl)-6-(2-hydroxypropan-2-yl)-2H-indazol-5-yl)pyrrolo[1,2-b]pyridazine-7-carboxamide]",96,1.3,4.6,99,14,96,0.8,98,0.6,74

# Compounds with a lower DC50 (IRAK4 [1]; [6]), results first:
Dmax (IRAK4 [1]; [5]) [%],DC50 (IRAK4 [1]; [6]) [nM],DC50 (IRAK4 [2]) [nM],Dmax (IRAK4 [2]) [%],IC50 [3] [nM],Dmax (IRAK4 [1]; [7]) [%],DC50 (IRAK4 [1]; [8]) [nM],SMILES,Emax [3] [%],IC50 [4] [nM],Emax [4] [%]
97,0.7,19,101,42,98,12,"COC[C@H]1CN(CC2CN(c3cc(F)c([C@H]4CCC(=O)NC4=O)c(F)c3)C2)CCN1[C@H]1CC[C@H](n2cc3cc(NC(=O)c4ccc5cc(C#N)cnn45)c(C(C)(C)O)cc3n2)CC1 [Example 322, 3-cyano-N-(2-((1R,4r)-4-((R)-4-((1-(4-((R)-2,6-dioxopiperidin-3-yl)-3,5-difluorophenyl)azetidin-3-yl)methyl)-2-(methoxymethyl)piperazin-1-yl)cyclohexyl)-6-(2-hydroxypropan-2-yl)-2H-indazol-5-yl)pyrrolo[1,2-b]pyridazine-7-carboxamide]",94,9.7,81
98,0.6,4.4,99,9,–,–,"CC(C)(O)c1cc2nn([C@H]3CC[C@H](N4CCN(CC5CN(c6cc(F)c([C@H]7CCC(=O)NC7=O)c(F)c6)C5)CC4)CC3)cc2cc1NC(=O)c1ccc2cc(C#N)cnn12 [Example 290, 3-cyano-N-(2-((1r,4r)-4-(4-((1-(4-((R)-2,6-dioxopiperidin-3-yl)-3,5-difluorophenyl)azetidin-3-yl)methyl)piperazin-1-yl)cyclohexyl)-6-(2-hydroxypropan-2-yl)-2H-indazol-5-yl)pyrrolo[1,2-b]pyridazine-7-carboxamide]",96,0.8,71
97,0.6,10,101,7.6,97,1.5,"CC(C)(O)c1cc2nn(C34CC(N5CCN(CC6CN(c7cc(F)c([C@H]8CCC(=O)NC8=O)c(F)c7)C6)CC5)(C3)C4)cc2cc1NC(=O)c1ccc2cc(C#N)cnn12 [Example 332, (R)-3-cyano-N-(2-(3-(4-((1-(4-(2,6-dioxopiperidin-3-yl)-3,5-difluorophenyl)azetidin-3-yl)methyl)piperazin-1-yl)bicyclo[1.1.1]pentan-1-yl)-6-(2-hydroxypropan-2-yl)-2H-indazol-5-yl)pyrrolo[1,2-b]pyridazine-7-carboxamide]",93,1.4,70
98,0.6,3.4,98,26,–,–,"COC[C@H]1CN([C@H]2CC[C@H](n3cc4cc(NC(=O)c5ccc6cc(C#N)cnn56)c(C(C)(C)O)cc4n3)CC2)CCN1CCc1cc(F)c([C@H]2CCC(=O)NC2=O)c(F)c1 [Example 314, 3-cyano-N-(2-((1R,4r)-4-((R)-4-(4-((R)-2,6-dioxopiperidin-3-yl)-3,5-difluorophenethyl)-3-(methoxymethyl)piperazin-1-yl)cyclohexyl)-6-(2-hydroxypropan-2-yl)-2H-indazol-5-yl)pyrrolo[1,2-b]pyridazine-7-carboxamide]",88,2.3,51
98,0.4,17,100,6.4,97,0.6,"CC(C)(O)c1cc2nn([C@H]3CC[C@H](N4CCN(C(=O)C5CN(c6cc(F)c([C@H]7CCC(=O)NC7=O)c(F)c6)C5)CC4)CC3)cc2cc1NC(=O)c1ccc2cc(C#N)cnn12 [Example 178, 3-cyano-N-(2-((1r,4r)-4-(4-(1-(4-((R)-2,6-dioxopiperidin-3-yl)-3,5-difluorophenyl)azetidine-3-carbonyl)piperazin-1-yl)cyclohexyl)-6-(2-hydroxypropan-2-yl)-2H-indazol-5-yl)pyrrolo[1,2-b]pyridazine-7-carboxamide]",92,1.2,61
